Tests used:
Assay in all cases: MIC of compounds alone and combined with antibacterials, broth microdilution (CLSI)
Format in all cases: cell-based
[1] = test system: Citrobacter freundii (CFR) isolates
How it was run: (§1)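 Antibacterial MICs in combination were determined at every compound concentration tested, alongside compound MICs alone. Bacteria grew in cation-adjusted Mueller-Hinton broth starting from 5.10^5 CFU/mL, incubated at 35° C for 16-20 h, and endpoints were the lowest concentrations with no visible growth.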

[2] = test system: Klebsiella oxytoca (KOX) isolates
How it was run: as §1

[3] = test system: Klebsiella pneumoniae (KPN) isolates
How it was run: as §1

[4] = test system: Morganella morganii (MMO) isolates
How it was run: as §1

[5] = test system: Providencia rettgeri (PRE) isolates
How it was run: as §1

Q: With CO/N=C(\C(=O)N[C@@H]1C(=O)N2C(C(=O)O)=C(COC(N)=O)CS[C@H]12)c1ccco1 [FUR, Cefuroxime] as the molecule, how does the MIC ([1]; strain CFR UFR10, genotype OXA-48) read?
A: >256 µg/mL

Q: What about the MIC ([1]; strain CFR UFR11, genotype TEM-1, OXA-1, OXA-48) of the same molecule?
A: >256 µg/mL

Q: And the MIC ([1]; strain CFR UFR83, genotype TEM-3, AmpC)?
A: >256 µg/mL

Q: What about the MIC ([1]; strain CFR UFR146, genotype TEM-1, KPC-2) of the same molecule?
A: >256 µg/mL

Q: What about the MIC ([1]; strain CFR UFR248, genotype CTX-M-15) of the same molecule?
A: >256 µg/mL

Q: And the MIC ([1]; strain CFR UFR249, genotype TEM-1, CTX-M-15)?
A: >256 µg/mL

Q: And the MIC ([1]; strain CFR UFR250, genotype TEM-1, SHV-28, CTX-M-15)?
A: >256 µg/mL

Q: And the MIC ([1]; strain CFR UFR253, genotype TEM-1, SHV-12, OXA-48)?
A: 32 µg/mL

Q: And the MIC ([1]; strain CFR UFR254, genotype VEB-1b, OXA-48, qnrA)?
A: 32 µg/mL

Q: And the MIC ([2]; strain KOX UFR21, genotype TEM-1, CTX-M-15, OXA-48)?
A: >256 µg/mL

Q: And the MIC ([2]; strain KOX UFR173, genotype OXY2-2)?
A: >256 µg/mL

Q: What about the MIC ([2]; strain KOX UFR223, genotype SHV-11, OXA-48) of the same molecule?
A: 8 µg/mL

Q: What about the MIC ([2]; strain KOX UFR224, genotype CTX-M-15, OXA-48) of the same molecule?
A: >256 µg/mL

Q: And the MIC ([3]; strain KPN 6299, genotype TEM-1, SHV-11, OXA-163)?
A: >512 µg/mL

Q: And the MIC ([3]; strain KPN 110376, genotype TEM-1, SHV-1, CTX-M-15, OXA-1, OXA-48)?
A: >256 µg/mL

Q: And the MIC ([3]; strain KPN 121206, genotype SHV-1, NDM-1)?
A: >256 µg/mL

Q: What about the MIC ([3]; strain KPN 131119, genotype TEM-1, SHV-11, CTX-M-15, OXA-1, OXA-48) of the same molecule?
A: >256 µg/mL

Q: And the MIC ([3]; strain KPN 140513, genotype TEM-1, SHV-11, CTX-M-15, KPC-3)?
A: >256 µg/mL

Q: What about the MIC ([3]; strain KPN 160143, genotype TEM-1, SHV-1, CTX-M-15, KPC-2, OXA-1) of the same molecule?
A: >256 µg/mL

Q: What about the MIC ([3]; strain KPN 190128, genotype TEM-1, SHV-32, CTX-M-15, OXA-1) of the same molecule?
A: >256 µg/mL

Q: What about the MIC ([3]; strain KPN 190270, genotype TEM-1, SHV-76, CTX-M-15, OXA-1) of the same molecule?
A: >256 µg/mL

Q: And the MIC ([3]; strain KPN 190425, genotype TEM-1, SHV-1, CTX-M-15, OXA-1)?
A: >256 µg/mL

Q: And the MIC ([3]; strain KPN 190551, genotype TEM-1, SHV-1, CTX-M-15, OXA-1)?
A: >256 µg/mL

Q: What about the MIC ([3]; strain KPN 200047, genotype TEM-1, SHV-32, CTX-M-15, OXA-1) of the same molecule?
A: >256 µg/mL

Q: And the MIC ([3]; strain KPN 200327, genotype TEM-1, SHV-1, CTX-M-15, OXA-1)?
A: >256 µg/mL

Q: What about the MIC ([3]; strain KPN 260251, genotype TEM-1, SHV-11, SHV-12, CTX-M-15, KPC-2) of the same molecule?
A: >256 µg/mL

Q: What about the MIC ([3]; strain KPN 260252, genotype TEM-1, SHV-11, KPC-3) of the same molecule?
A: >256 µg/mL

Q: What about the MIC ([3]; strain KPN 260376, genotype SHV-1, SHV-49, OXA-1) of the same molecule?
A: >256 µg/mL

Q: And the MIC ([3]; strain KPN 270077, genotype TEM-1, SHV-1, CTX-M-15)?
A: >256 µg/mL

Q: What about the MIC ([3]; strain KPN 700603, genotype SHV-18, OXA-2) of the same molecule?
A: 32 µg/mL

Q: What about the MIC ([3]; strain KPN ARA, genotype TEM-1, SHV-11, CTX-M-15, OXA-1, OXA-48) of the same molecule?
A: >256 µg/mL

Q: And the MIC ([3]; strain KPN BAA-1898, genotype TEM-1, SHV-11, SHV-12, KPC-2)?
A: >512 µg/mL

Q: What about the MIC ([3]; strain KPN LIB, genotype SHV-11, OXA-48) of the same molecule?
A: 16 µg/mL

Q: What about the MIC ([3]; strain KPN UFR22_O, genotype TEM-1, SHV-1, OXA-48) of the same molecule?
A: 32 µg/mL

Q: What about the MIC ([3]; strain KPN UFR23, genotype TEM-1, SHV-1, OXA-48) of the same molecule?
A: 8 µg/mL

Q: What about the MIC ([3]; strain KPN UFR24, genotype TEM-1, SHV-2, SHV-11, OXA-1, OXA-48, OXA-47) of the same molecule?
A: 128 µg/mL

Q: And the MIC ([3]; strain KPN UFR25, genotype TEM-1, SHV-11, CTX-M-15, OXA-162)?
A: >256 µg/mL

Q: And the MIC ([3]; strain KPN UFR27, genotype TEM-1, SHV-28, CTX-M-15, OXA-204)?
A: >256 µg/mL

Q: And the MIC ([3]; strain KPN UFR28, genotype TEM-1, SHV-1, CTX-M-15, OXA-1, OXA-232)?
A: >256 µg/mL

Q: And the MIC ([3]; strain KPN UFR42, genotype SHV-2, CTX-M-15 OXA-1, OXA-181, NDM-1)?
A: >256 µg/mL

Q: And the MIC ([3]; strain KPN UFR65, genotype TEM-1, SHV-11, KPC-2)?
A: >256 µg/mL

Q: And the MIC ([3]; strain KPN UFR66, genotype TEM-1, SHV-11, CTX-M-15, KPC-2)?
A: >256 µg/mL

Q: What about the MIC ([3]; strain KPN UFR67, genotype TEM-1, SHV-11, KPC-3) of the same molecule?
A: >256 µg/mL

Q: What about the MIC ([3]; strain KPN UFR68, genotype TEM-1, SHV-11, CTX-M-15, KPC-3) of the same molecule?
A: >256 µg/mL

Q: And the MIC ([3]; strain KPN UFR76, genotype TEM-155, SHV-11, ACT-1, OXA-2)?
A: >256 µg/mL

Q: What about the MIC ([3]; strain KPN UFR77, genotype CMY-2) of the same molecule?
A: 64 µg/mL

Q: What about the MIC ([3]; strain KPN UFR78, genotype TEM-1, SHV-1, CTX-M-15, CMY-2, OXA-1, OXA-48) of the same molecule?
A: >256 µg/mL

Q: What about the MIC ([3]; strain KPN UFR79, genotype DHA-1, OXA-1) of the same molecule?
A: >256 µg/mL

Q: What about the MIC ([3]; strain KPN UFR80, genotype SHV-11, DHA-1, OXA-1) of the same molecule?
A: 32 µg/mL

Q: What about the MIC ([3]; strain KPN UFR81, genotype TEM-1, SHV-1, DHA-1, OXA-48) of the same molecule?
A: >256 µg/mL

Q: What about the MIC ([3]; strain KPN UFR215, genotype SHV-27, CTX-M-15) of the same molecule?
A: >256 µg/mL

Q: And the MIC ([3]; strain KPN UFR216, genotype SHV-28, CTX-M-15)?
A: >256 µg/mL

Q: And the MIC ([3]; strain KPN UFR217, genotype TEM-1, SHV-1, CTX-M-15)?
A: >256 µg/mL

Q: What about the MIC ([3]; strain KPN UFR219, genotype SHV-12, CTX-M-15) of the same molecule?
A: >256 µg/mL

Q: And the MIC ([3]; strain KPN UFR220, genotype TEM-1, SHV-12, DHA-1)?
A: >256 µg/mL

Q: And the MIC ([3]; strain KPN UFR221, genotype TEM-1, SHV-11, CTX-M-14, DHA-1)?
A: >256 µg/mL

Q: What about the MIC ([3]; strain KPN UFR222, genotype DHA-2) of the same molecule?
A: >256 µg/mL

Q: And the MIC ([3]; strain KPN UFR227O, genotype TEM-x, SHV-x, CTX-M-x)?
A: >256 µg/mL

Q: What about the MIC ([4]; strain MMO 200321, genotype TEM-1, CTX-M-15, OXA-1) of the same molecule?
A: >256 µg/mL

Q: What about the MIC ([4]; strain MMO UFR144, genotype TEM-1, CTX-M-15) of the same molecule?
A: >256 µg/mL

Q: And the MIC ([4]; strain MMO UFR240, genotype CTX-M-9)?
A: >256 µg/mL

Q: What about the MIC ([4]; strain MMO UFR241, genotype TEM-1, CTX-M-15) of the same molecule?
A: >256 µg/mL

Q: And the MIC ([4]; strain MMO UFR242, genotype TEM-52)?
A: >256 µg/mL

Q: And the MIC ([4]; strain MMO UFR243, genotype DHA-1)?
A: 128 µg/mL

Q: And the MIC ([4]; strain MMO UFR244, genotype DHA-1)?
A: 64 µg/mL

Q: What about the MIC ([4]; strain MMO UFR245, genotype DHA-1) of the same molecule?
A: 128 µg/mL

Q: What about the MIC ([4]; strain MMO UFR246, genotype DHA-1) of the same molecule?
A: 128 µg/mL

Q: What about the MIC ([4]; strain MMO UFR247, genotype DHA-1) of the same molecule?
A: >256 µg/mL

Q: And the MIC ([5]; strain PRE UFR99, genotype OXA-1, OXA-181)?
A: >256 µg/mL

Q: What about the MIC ([5]; strain PRE UFR236, genotype TEM-1, OXA-48) of the same molecule?
A: 64 µg/mL
